Tested on: bone marrow derived mast cells (BMMCs)
Assay type: cell-based, C57Bl/6 mouse

`O=C(O)c1cc(=O)c2c(OCC(O)COc3cccc4oc(C(=O)O)cc(=O)c34)cccc2o1` [cromolyn, 5-[3-(2-carboxy-4-oxochromen-5-yl)oxy-2-hydroxypropoxy]-4-oxochromene-2-carboxylic acid] was tested, and the “Mast cell degranulation in response to SARS-CoV-2 Spike protein (percentage degranulation)” value was “reduced”.
